According to paper PMC12651750 (Cells, 2025):

Tested on: Jurkat cells
Assay: Western blot of protein levels
Format: cell-based, human
Details: 0.2, 1, 5 µM, 48 h
Method: Jurkat cells were stimulated with NBU-2 (0.2 µM, 1 µM, 5 µM) and DMSO, respectively, for 48 h. Cells were lysed by the addition of appropriate RIPA Lysis Buffer (containing protease inhibitors and phosphatase inhibitors), and protein concentrations were determined using the BCA assay. Centrifuge the above cell lysates at 12,000× g for 10 min at 4 °C and retain the supernatant. After diluting the samples to the same concentration with lysate, add the corresponding volume of SDS-PAGE protein uploading buffer (5×), and the proteins were denatured by boiling at 100 °C for 10 min. According to the molecular weight of the target protein, we selected the corresponding concentration of the gel for electrophoresis. After electrophoresis, the proteins on the gel were transferred to the PVDF membrane. The transfer time could be adjusted appropriately according to the molecular weight of the proteins. Subsequently, the corresponding protein primary antibody was taken, and the corresponding antibody was diluted according to the instructions and incubated overnight at 4 °C on a shaker. The following day, it was conjugated to the secondary antibody. The protein bands were then visualized under the ChemiDoc system using the chemiluminescent developer. Antibodies HDAC1 (Cat#10197-1-AP), HDAC6 (Cat#12834-1-AP), Bax (Cat#60267-1-1), BAD (Cat#10435-1-AP), Bcl-2 (Cat#12789-1-AP), Bcl-xl (Cat#10783-1-AP), Caspase3/P17/P19 (Cat#19677-1-AP), Caspase8/P43/P18 (Cat#13423-1-AP), and P21 (Cat#10355-1-AP) were purchased from Wuhan, China. Antibody actin (Cat#21338-1) was purchased from SAB, China. Acetyl-Histone H3 (Cat#AF1684), Acetyl-Histone H4 (Cat#AJ4218), Phos-AKT1 (Cat#AF1546), CDK4 (Cat#AF2515), Cyclin D1 (Cat#AF0126), and Phos-RB1 (Cat#AF1135) were purchased from Beyotime International, Nantong, China. H3 (Cat#A2348) and Caspase3 (A19653) were purchased from ABclonal, Wuhan, China. Cleaved-Caspase9 (Cat#52873T) was purchased from Cell Signal Technology, Danvers, MA, USA.

With `Cc1cccc2c(=O)c3c(NCCCCCC(=O)NO)ccc([N+](=O)[O-])c3[nH]c12` [NBU-2, N-hydroxy-6-((5-methyl-4-nitro-9-oxo-9,10-dihydroacridin-1-yl)amino)hexanamide] the Ac-H4 level was “no significant change”, the BAD expression was “unaffected” and the Bcl-2 expression was “reduced”. The Bcl-XL expression was “reduced”, the “Caspase-3 (prototype) expression” value was “did not affect” and the “Caspase-8 (prototype) expression” value was “did not affect”. The “Caspase-9 (prototype) expression” value was “did not affect”, the “HDAC1 protein expression level” value was “not affected” and the “HDAC6 protein expression level” value was “not affected”. The “Protein level of p-Akt (Ser473)” value was “significantly reduced”, the “Total histone H3” value was “not affected” and the CDK4 expression (concentration-dependent) was “inhibited”. For the same molecule, the “Cyclin D1 expression” value (concentration-dependent) was “inhibited”, the “Intracellular Ac-H3 protein level” value (concentration-dependent) was “significantly increased” and the p21 expression (concentration-dependent) was “increased”. The BAX expression (with concentration) was “increased”, the Cleaved-Caspase-3 expression (with increasing concentration) was “increased” and the Cleaved-Caspase-9 expression (with increasing concentration) was “increased”. For the same molecule, the p-Rb expression (with increasing concentration) was “decreased”.
